How the values were obtained:
Assay in all cases: relative viability (nuclei count vs DMSO), 5 days (fraction); higher = more cells survive
[1] = compound: CCN(CCO)CCCC(C)Nc1ccnc2cc(Cl)ccc12 [Hydroxychloroquine]
How it was run: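 Viability was read as treated-well nuclei divided by vehicle-well nuclei, using the median across plates. Lung cancer cell lines in 1536-well plates were kept overnight at 37 °C, pinned with five √10-spaced library-drug doses, and after 5 days were Hoechst-stained, imaged at 4× and counted in MetaXpress. Plates passed only with control CV below 25% and at least one doubling.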

[2] = compound: CCN(CCO)CCCC(C)Nc1ccnc2cc(Cl)ccc12 [Hydroxychloroquine] + CC1(C)CCC(c2ccc(Cl)cc2)=C(CN2CCN(c3ccc(C(=O)NS(=O)(=O)c4ccc(N[C@H](CCN5CCOCC5)CSc5ccccc5)c(S(=O)(=O)C(F)(F)F)c4)cc3)CC2)C1 [Navitoclax] (partner 0.5 µM)
How it was run: (§1)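 Lung cancer cell lines in 1536-well plates got either a single drug or a fixed anchor-drug dose together with five library-drug doses (not always all listed) in √10 steps, by pin tool, on the day after seeding. Nuclei were counted after 5 days, and relative viability is the treated-to-vehicle ratio of nuclei counts. Values are medians of duplicate plates.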

[3] = compound: CCN(CCO)CCCC(C)Nc1ccnc2cc(Cl)ccc12 [Hydroxychloroquine] + Cc1cc(Nc2cc(N3CCN(C)CC3)nc(Sc3ccc(NC(=O)C4CC4)cc3)n2)n[nH]1 [Tozasertib] (partner 0.1 µM)
How it was run: as §1

[4] = compound: CCN(CCO)CCCC(C)Nc1ccnc2cc(Cl)ccc12 [Hydroxychloroquine] + N=C(N)NC(=N)NCCc1ccccc1 [Phenformin] (partner 250 µM)
How it was run: as §1

Cell Line | relative viability ([1]; 0.5 µM) | relative viability ([1]; 1.581 µM) | relative viability ([1]; 5 µM) | relative viability ([1]; 15.81 µM) | relative viability ([1]; 50 µM) | relative viability ([2]; first compound 0.5 µM) | relative viability ([2]; first compound 1.581 µM) | relative viability ([2]; first compound 5 µM) | relative viability ([2]; first compound 15.81 µM) | relative viability ([2]; first compound 50 µM) | relative viability ([3]; first compound 0.5 µM) | relative viability ([3]; first compound 1.581 µM) | relative viability ([3]; first compound 5 µM) | relative viability ([3]; first compound 15.81 µM) | relative viability ([3]; first compound 50 µM) | relative viability ([4]; first compound 0.5 µM) | relative viability ([4]; first compound 1.581 µM) | relative viability ([4]; first compound 5 µM) | relative viability ([4]; first compound 15.81 µM) | relative viability ([4]; first compound 50 µM)
HCC-15 | 1.08 | 0.956 | 1.04 | 1.06 | 1.04 | 0.72 | 0.669 | 0.702 | 0.758 | 0.714 | 0.392 | 0.399 | 0.412 | 0.321 | 0.441 | 0.461 | 0.465 | 0.522 | 0.497 | 0.456
HCC-44 | 1.04 | 0.996 | 1.01 | 1.01 | 1.04 | 1.02 | 1 | 0.964 | 0.994 | 1.06 | 1.18 | 0.937 | 0.895 | 0.934 | 1.3 | 0.316 | 0.145 | 0.171 | 0.226 | 0.234
HCC-78 | 1.04 | 0.903 | 1.03 | 1.01 | 0.94 | 0.865 | 0.82 | 0.993 | 0.768 | 0.777 | 0.438 | 0.459 | 0.478 | 0.305 | 0.466 | 0.809 | 0.739 | 0.716 | 0.653 | 0.741
HCC-366 | 1.01 | 0.981 | 0.986 | 1.06 | 1.03 | 1.09 | 1.04 | 0.963 | 1.07 | 1.16 | 0.109 | 0.132 | 0.138 | 0.0907 | 0.144 | 0.564 | 0.558 | 0.597 | 0.605 | 0.657
HCC-827 | 1.03 | 1.02 | 1.04 | 1.02 | 1.06 | 0.941 | 1.02 | 1.03 | 1.1 | 1.02 | 0.442 | 0.442 | 0.513 | 0.467 | 0.456 | 0.447 | 0.339 | 0.359 | 0.395 | 0.414
HOP-62 | 1.04 | 1.01 | 1.05 | 1.08 | 1.08 | 0.962 | 1.13 | 1.1 | 1.03 | 1.13 | 0.365 | 0.316 | 0.38 | 0.43 | 0.413 | 0.557 | 0.603 | 0.762 | 0.686 | 0.755
LC-2-ad | 1 | 0.982 | 0.996 | 0.998 | 1.02 | 0.337 | 0.332 | 0.478 | 0.416 | 0.405 | 0.447 | 0.478 | 0.415 | 0.463 | 0.455 | 0.587 | 0.521 | 0.573 | 0.632 | 0.54
LCLC-97TM1 | 1.14 | 1.06 | 1.03 | 0.944 | 0.946 | 0.432 | 0.619 | 0.656 | 0.517 | 0.397 | 0.282 | 0.254 | 0.229 | 0.509 | 0.26 | 0.435 | 0.409 | 0.488 | 0.422 | 0.384

Source: the supplement of paper PMC10307832
